According to patent US6627631B1, “Pharmaceutical composition containing desoxypeganine for the treatment of alcoholism” (priority 1999, dated 2003):

Legend:
[1] = test system: ethanol-preferring rats (strain going back to the Finnish AA rat line); test: Voluntary alcohol consumption of genetic ethanol-preferring rats (free choice of 10% ethanol or water); type: in vivo; details: for Alcohol consumption, absolute / Food intake / Alcohol preference (proportion of ethanol solution to total amount of drink) / Total amount of drink: n=6; for Food intake / Total amount of drink: not significant
Protocol: Influence of deoxypeganine HCl on the voluntary alcohol consumption of genetic ethanol-preferring rats.
The experimental animals were in each case 6 female rats of a strain which goes back to the Finnish AA rat line. The animals of this inbred strain prefer 10% alcohol as a drinking liquid if pure water is additionally offered to them (free choice).
The animals were kept individually in type 3 Makrolon cages at a room temperature of 23° C. and air changes nine times per hour. Dry feed granules (Altromin 1311; meal to which vitamins, minerals, amino acids and trace elements are added; manufacturer: Altromin
Spezialfutterwerke GmbH, Lage), drinking water and ethanol solution (10% v/v) were available to them in unrestricted amounts only during the dark phase from 20.00 hours to 08.00 hours, namely in special vessels which guarantee loss-free feeding and drinking. The amounts consumed were determined gravimetrically; the amounts of drink automatically and continuously with the aid of twelve weighing cells. The respective proportion of ethanol solution to the total amount of drink in % served as a measure of the alcohol preference: 0% means that only water, no ethanol solution, was drunk, 100% means that exclusively ethanol solution was drunk. The average alcohol preference of the untreated experimental animals was 78% or 83%.
Table: Influence of deoxypeganine HCl on the ingestive behavior of female ethanol-prefering rats (n=6). The values determined during the three-day preliminary period in each case are in round brackets.

[2] = in contrast to neostigmine; cited from earlier work
cholinesterase = details: known pharmacological properties; cited from earlier work
[3] = summary of the table, 15 and 30 mg/kg orally

Compound | Alcohol consumption, absolute ([1]; 15 mg/kg orally, preliminary period value 6.47 ± 0.43, p<0.01) | Food intake ([1]; 15 mg/kg orally, preliminary period value 55.2 ± 1.3) | Alcohol preference (proportion of ethanol solution to total amount of drink) ([1]; 15 mg/kg orally, preliminary period value 82.8 ± 6.4, p<0.01) [%] | Total amount of drink ([1]; 15 mg/kg orally, preliminary period value 97.2 ± 2.3) | Alcohol consumption, absolute ([1]; 30 mg/kg orally, preliminary period value 6.30 ± 0.34, p<0.001) | Food intake ([1]; 30 mg/kg orally, preliminary period value 55.7 ± 2.1) | Alcohol preference (proportion of ethanol solution to total amount of drink) ([1]; 30 mg/kg orally, preliminary period value 77.8 ± 4.3, p<0.001) [%] | Total amount of drink ([1]; 30 mg/kg orally, preliminary period value 100.9 ± 1.9) | Desire for alcohol [1, 3] | Food intake and total amount of drink [1, 3] | Blood-brain barrier passage [2] | Cholinesterase inhibition, mode of action (cholinesterase) | Degradation of acetylcholine and of dopamine (cholinesterase)
Cl.c1ccc2c(c1)CN1CCCC1=N2 [deoxypeganine HCl] | 3.17 ± 0.89 g/kg of BW | 57.7 ± 2.6 ns g/kg of BW | 45.0 ± 12.9 | 89.8 ± 5.6 ns g/kg of BW | 3.71 ± 0.42 g/kg of BW | 44.6 ± 7.6 ns g/kg of BW | 51.7 ± 6.4 | 90.6 ± 6.1 ns g/kg of BW |  |  |  |  | 
c1ccc2c(c1)CN1CCCC1=N2 [deoxypeganine, 1,2,3,9-tetrahydropyrrolo[2,1-b]quinazoline] |  |  |  |  |  |  |  |  | considerably reduced | not significantly changed | crosses the blood-brain barrier | reversibly acting cholinesterase inhibitors | inhibits not only the degradation of acetylcholine, but also that of dopamine
